Laboratory results reported in PMC5917010, “Structural basis for GPR40 allosteric agonism and incretin stimulation” (Nature Communications, 2018).

How the values were obtained:
[1] = Human hepatocyte clearance; assay type: in vitro ADME; details: hepatocytes
hRORbeta = hRORbeta (Homo sapiens, UniProt Q92753); assay: hRORbeta binding
human GPR40 [2] = target: T1, human GPR40 (Homo sapiens, UniProt O14842); assay: Human GPR40 IP1; assay type: cell-based
T1 construct: HEK293 cells stably overexpressing full length human GPR40; expressed in transfected cells
T1 sequence (O14842 whole entry): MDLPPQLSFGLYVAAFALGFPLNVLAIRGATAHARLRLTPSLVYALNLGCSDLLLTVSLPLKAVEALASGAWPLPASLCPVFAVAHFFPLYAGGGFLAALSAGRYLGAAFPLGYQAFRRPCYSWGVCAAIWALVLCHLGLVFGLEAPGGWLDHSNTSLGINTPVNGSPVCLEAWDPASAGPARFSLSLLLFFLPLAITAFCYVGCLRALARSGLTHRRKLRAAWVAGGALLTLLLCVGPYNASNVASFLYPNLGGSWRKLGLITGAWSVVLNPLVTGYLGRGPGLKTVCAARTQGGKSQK

hNav1.7 = hNav1.7 (Homo sapiens, UniProt Q15858); assay: hNav1.7 binding; details: read-out: hNav1.7 binding Rel IC50
hNav1.7, sequence (Q15858 whole entry): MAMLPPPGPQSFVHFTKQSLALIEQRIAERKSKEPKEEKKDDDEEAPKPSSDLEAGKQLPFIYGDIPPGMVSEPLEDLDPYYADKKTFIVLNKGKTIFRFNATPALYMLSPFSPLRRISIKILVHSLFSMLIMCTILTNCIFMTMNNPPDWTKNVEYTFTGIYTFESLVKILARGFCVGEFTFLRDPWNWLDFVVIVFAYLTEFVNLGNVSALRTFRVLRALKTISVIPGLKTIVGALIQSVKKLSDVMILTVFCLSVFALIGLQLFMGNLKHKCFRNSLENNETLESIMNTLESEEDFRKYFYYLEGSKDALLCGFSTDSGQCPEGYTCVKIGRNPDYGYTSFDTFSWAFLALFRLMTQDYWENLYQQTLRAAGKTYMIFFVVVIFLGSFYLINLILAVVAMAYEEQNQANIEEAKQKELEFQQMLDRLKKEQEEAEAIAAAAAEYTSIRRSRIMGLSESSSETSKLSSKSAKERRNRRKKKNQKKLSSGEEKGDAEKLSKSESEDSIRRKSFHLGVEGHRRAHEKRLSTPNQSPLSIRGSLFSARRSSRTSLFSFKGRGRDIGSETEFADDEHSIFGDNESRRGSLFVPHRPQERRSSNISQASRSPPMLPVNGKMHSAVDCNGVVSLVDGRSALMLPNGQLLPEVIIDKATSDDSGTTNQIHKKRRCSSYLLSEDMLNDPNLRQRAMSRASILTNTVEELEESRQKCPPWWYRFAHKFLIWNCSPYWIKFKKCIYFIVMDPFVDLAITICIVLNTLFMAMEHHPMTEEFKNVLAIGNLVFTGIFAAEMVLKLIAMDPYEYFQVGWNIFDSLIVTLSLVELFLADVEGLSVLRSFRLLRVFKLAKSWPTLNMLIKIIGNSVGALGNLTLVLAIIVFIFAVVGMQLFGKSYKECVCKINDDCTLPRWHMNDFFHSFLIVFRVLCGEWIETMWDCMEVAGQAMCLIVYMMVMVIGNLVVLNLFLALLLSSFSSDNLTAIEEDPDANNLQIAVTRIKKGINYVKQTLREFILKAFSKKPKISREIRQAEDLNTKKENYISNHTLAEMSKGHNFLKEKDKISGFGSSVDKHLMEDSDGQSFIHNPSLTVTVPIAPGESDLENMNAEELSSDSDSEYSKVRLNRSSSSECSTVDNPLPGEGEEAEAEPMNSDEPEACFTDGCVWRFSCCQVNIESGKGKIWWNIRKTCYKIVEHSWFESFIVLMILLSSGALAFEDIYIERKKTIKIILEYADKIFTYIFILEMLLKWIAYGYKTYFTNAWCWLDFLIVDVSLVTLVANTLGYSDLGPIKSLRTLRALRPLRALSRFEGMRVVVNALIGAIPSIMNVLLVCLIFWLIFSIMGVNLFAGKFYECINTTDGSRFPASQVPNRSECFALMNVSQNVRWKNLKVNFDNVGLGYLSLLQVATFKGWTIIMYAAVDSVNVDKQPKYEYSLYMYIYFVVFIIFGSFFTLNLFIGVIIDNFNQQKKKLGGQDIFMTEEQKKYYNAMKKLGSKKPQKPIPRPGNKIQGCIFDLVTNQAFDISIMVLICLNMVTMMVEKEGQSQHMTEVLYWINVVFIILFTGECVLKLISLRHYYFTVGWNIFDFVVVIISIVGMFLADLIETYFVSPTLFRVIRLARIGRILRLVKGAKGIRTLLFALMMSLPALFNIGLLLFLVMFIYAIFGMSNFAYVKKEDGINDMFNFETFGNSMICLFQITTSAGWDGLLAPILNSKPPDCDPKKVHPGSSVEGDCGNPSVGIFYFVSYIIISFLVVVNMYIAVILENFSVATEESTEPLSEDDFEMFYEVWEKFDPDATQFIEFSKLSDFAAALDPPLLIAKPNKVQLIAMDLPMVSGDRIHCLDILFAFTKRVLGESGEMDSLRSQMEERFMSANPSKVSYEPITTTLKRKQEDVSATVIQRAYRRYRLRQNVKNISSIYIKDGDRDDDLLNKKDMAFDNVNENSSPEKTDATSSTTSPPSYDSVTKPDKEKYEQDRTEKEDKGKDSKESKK

[3] = test system: GPR40 knock-out (KO) mice; assay: IPGTT in GPR40 knock-out mice; assay type: in vivo, mouse; details: high dose of compound 1
Description: (§1) Nine to ten week old male ICR mice (Envigo) and GPR40 KO mice (Taconic) were used. The day before an IPGTT (~1600), animals were fasted in clean cages. The following morning (~0800), animals were randomized on fasting glucose and body weight (N = 6 per group). Mice were orally administered a test article or vehicle 60 min prior to an intraperitoneal (IP) injection of glucose (2g/kg). Blood glucose levels were determined by a glucometer from tail bleeds taken at 0, 15, 30, 60, and 120 min after the glucose challenge. An average of two readings were reported at each time point. Also, blood samples were collected into serum tubes at 0, 3, 6, and 15 min post glucose injection for insulin measurement. Serum tubes were centrifuged at 3000g for 5 min and serum transferred into 96-well plates for insulin analysis by a Mesoscale rat/mouse insulin assay.

GPR40 Y114F = GPR40 Y114F (Homo sapiens, UniProt O14842, Y114F); assay: cAMP accumulation assay, Y114F mutant
GPR40 Y114F, sequence (O14842 whole entry Y114F): as the sequence (O14842 whole entry) above, with Y114F counted along it
Description: (§3) HEK293 cells transiently transfected with Promega’s cAMP response element (CRE/luc2P) and a GPR40 construct were plated (40K cells/well) into 96-well microtiter plates using Dulbecco’s Modified Eagle’s Medium (DMEM) supplemented with 10% FBS, 20 mM HEPES, pH 7.4, 100 U/mL Penicillin, 100 µg/mL Streptomycin, and 800 µg/mL Geneticin. Test compounds were serially diluted three-fold in 100% DMSO and immediately diluted in media. […] EC50 values were calculated using a four-parameter logistic curve fitting equation.

GPR40 Y44F = GPR40 Y44F (Homo sapiens, UniProt O14842, Y44F); assay: cAMP accumulation assay, Y44F mutant
GPR40 Y44F, sequence (O14842 whole entry Y44F): as the sequence (O14842 whole entry) above, with Y44F counted along it
Description: as §3

GPR40 KO mice [4] = assay: OGTT in GPR40 KO mice; assay type: in vivo, mouse; details: high dose of compound 1
Description: (§2) Eight to thirteen week old male C57BL/6 or KO mice were used. The day before the study, at 1600 hours, animals were transferred into clean cages and food was removed. The following morning (~0800 hours), mice were randomized by block randomization to treatment groups (N = 5–7 per group) so each group had similar mean and standard deviation of body weight and blood glucose. […] Animals were dosed with vehicle (0.5% MC/0.25% Tween-80) or the test article by oral gavage. Group allocations were not blinded from the experimenters who collected the data. After 60 min compound treatment animals were then given an oral gavage of glucose (2 g/kg). At 0, 15, 30, 60, and 120 min post oral glucose, two glucose readings via glucometers were obtained. The average of two glucose readings was reported at each time point. Data were expressed as mean±standard error (s.e.m.). Blood glucose values were analyzed using ANOVA with repeated measures. Cook’s distance was also calculated from linear regression. All animals were included in the analysis with their individual averaged Cook’s distance < 1. Dunnett’s comparison was performed at each time point by R program. Significance is denoted at p < 0.05.

PPAR = PPAR binding and functional assays at multiple concentrations; details: all PPAR binding and functional assays
GPR40 KO mice [5] = assay: Incretin secretion assay in GPR40 KO mice; assay type: in vivo, mouse
WT GPR40 = WT GPR40 (Homo sapiens, UniProt O14842); assay: cAMP accumulation assay (CRE/luc2P), wild type GPR40
WT GPR40, sequence (O14842 whole entry): as the sequence (O14842 whole entry) above
Description: as §3

[6] = test system: GPCRs (including GPR120), NHRs and Kinases; assay: Selectivity panels against GPCRs, NHRs and Kinases
GPR40 S123A = GPR40 S123A (Homo sapiens, UniProt O14842, S123A); assay: cAMP accumulation assay, S123A mutant
GPR40 S123A, sequence (O14842 whole entry S123A): as the sequence (O14842 whole entry) above, with S123A counted along it
Description: as §3

Rat hepatocyte clearance = assay type: in vitro ADME; details: hepatocytes
wild type ICR mice = assay: Intraperitoneal glucose tolerance test (IPGTT) in wild type ICR mice; assay type: in vivo, mouse; details: various oral doses
Description: as §1

Dog hepatocyte clearance = assay type: in vitro ADME; details: hepatocytes
[7] = Mouse hepatocyte clearance; assay type: in vitro ADME; details: hepatocytes
human GPR40 [8] = target: T1, human GPR40; assay: Human GPR40 Calcium (Supplementary Table 1); assay type: cell-based
GPR40 L112A = GPR40 L112A (Homo sapiens, UniProt O14842, L112A); assay: cAMP accumulation assay, L112A mutant
GPR40 L112A, sequence (O14842 whole entry L112A): as the sequence (O14842 whole entry) above, with L112A counted along it
Description: as §3

human GPR40 [9] = target: T1, human GPR40; assay: Human GPR40 b-arrestin; assay type: cell-based
hGLUCR = hGLUCR (Homo sapiens, UniProt P47871); assay: hGLUCR binding
hGLUCR, sequence (P47871 26-477): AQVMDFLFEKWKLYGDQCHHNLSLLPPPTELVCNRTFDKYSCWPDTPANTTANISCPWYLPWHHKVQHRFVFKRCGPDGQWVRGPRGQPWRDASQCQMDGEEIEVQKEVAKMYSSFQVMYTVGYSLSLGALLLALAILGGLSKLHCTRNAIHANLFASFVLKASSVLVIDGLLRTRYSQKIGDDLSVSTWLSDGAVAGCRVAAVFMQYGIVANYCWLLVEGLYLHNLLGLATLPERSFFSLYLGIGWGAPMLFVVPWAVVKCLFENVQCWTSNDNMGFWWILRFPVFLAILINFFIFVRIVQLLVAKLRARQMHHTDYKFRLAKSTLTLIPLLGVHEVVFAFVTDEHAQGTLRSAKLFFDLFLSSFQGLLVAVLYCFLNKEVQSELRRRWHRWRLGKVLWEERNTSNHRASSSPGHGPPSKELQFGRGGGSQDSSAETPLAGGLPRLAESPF

GPR120 KO mice = assay: OGTT in GPR120 KO mice; assay type: in vivo, mouse; details: 5 mg/kg
Description: as §2

hRORbeta, sequence (Q92753 whole entry): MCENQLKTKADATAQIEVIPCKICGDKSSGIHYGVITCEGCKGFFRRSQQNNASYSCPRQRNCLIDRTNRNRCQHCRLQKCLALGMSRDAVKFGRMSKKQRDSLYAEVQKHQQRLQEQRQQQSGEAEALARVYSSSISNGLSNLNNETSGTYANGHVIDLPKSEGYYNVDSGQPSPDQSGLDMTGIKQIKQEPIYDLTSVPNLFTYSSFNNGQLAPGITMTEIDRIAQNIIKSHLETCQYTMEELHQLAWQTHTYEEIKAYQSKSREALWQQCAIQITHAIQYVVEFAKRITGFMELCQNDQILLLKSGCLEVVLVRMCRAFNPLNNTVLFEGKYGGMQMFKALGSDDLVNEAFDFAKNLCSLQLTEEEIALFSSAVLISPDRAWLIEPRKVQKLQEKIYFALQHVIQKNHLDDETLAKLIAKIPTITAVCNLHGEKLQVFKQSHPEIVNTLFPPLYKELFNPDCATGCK

With `COc1ccc(C(=O)N(CC(C)(C)C)c2cccc(C)n2)c(N2CCC(c3cc4ccc([C@@H](CC(=O)O)C5CC5)cc4o3)CC2)c1` [compound 1] as the compound, how does the recovery ([1]; no ABT, read-out: Human Hepatocyte Clearance no ABT % Recovery) read?
The recovery was 103%.

And the hepatocyte CLint ([1]; no ABT, read-out: Human Hepatocyte Clearance no ABT Intrinsic Clearance)?
Its hepatocyte CLint is 8.8 µL/min/1e6 cells.

What about the recovery ([1]; with ABT (concentration not stated), read-out: Human Hepatocyte Clearance ABT % Recovery) of the same compound?
The recovery was 92.8%.

And the hepatocyte CLint ([1]; with ABT, read-out: Human Hepatocyte Clearance ABT Intrinsic Clearance)?
The hepatocyte CLint was less than 1.8 µL/min/1e6 cells.

What about the Ki (hRORbeta) of the same compound?
Its Ki is greater than 13 µM.

What about the EC50 (human GPR40 [2]) of the same compound?
Its EC50 is less than 0.05 nM.

What about the Emax (human GPR40 [2]) of the same compound?
The Emax was 484%.

What about the IC50 (hNav1.7) of the same compound?
Its IC50 is greater than 30 µM.

What about the “glucose lowering in IPGTT, GPR40 KO” value [3] of the same compound?
The value was “not observed”.

What about the “insulin secretion in IPGTT, GPR40 KO” value [3] of the same compound?
The value was “not observed”.

And the EC50 (GPR40 Y114F)?
The EC50 was 11 µM.

What about the EC50 (GPR40 Y44F) of the same compound?
Its EC50 is greater than 30 µM.

What about the “blood glucose in OGTT, GPR40 KO” value (GPR40 KO mice [4]) of the same compound?
Its value is “No change in blood glucose”.

What about the “PPAR binding or functional activities” value (PPAR) of the same compound?
The value was “lack of significant PPAR binding or functional activities”.

What about the “plasma active GIP concentrations, GPR40 KO” value (GPR40 KO mice [5]) of the same compound?
The value was “no effect”.

What about the “plasma total GLP-1 concentrations, GPR40 KO” value (GPR40 KO mice [5]) of the same compound?
Its value is “no effect”.

And the EC50 (WT GPR40; cAMP accumulation EC50, GPR40-Gαs signaling, stably transfected cells, Fig. 1c, n = 6)?
Its EC50 is roughly 0.126 µM.

What about the EC50 (WT GPR40; cAMP accumulation EC50, WT, Fig. 6c-e, n = 3) of the same compound?
The EC50 was 0.21 µM.

What about the “selectivity in selectivity panels” value [6] of the same compound?
The value was “highly selective”.

What about the EC50 (GPR40 S123A) of the same compound?
The EC50 was greater than 30 µM.

What about the recovery (Rat hepatocyte clearance; no ABT, read-out: Rat Hepatocyte Clearance no ABT % Recovery) of the same compound?
The recovery was 103%.

What about the hepatocyte CLint (Rat hepatocyte clearance; no ABT, read-out: Rat Hepatocyte Clearance no ABT Intrinsic Clearance) of the same compound?
The hepatocyte CLint was 12.2 µL/min/1e6 cells.

And the recovery (Rat hepatocyte clearance; with ABT (concentration not stated), read-out: Rat Hepatocyte Clearance ABT % Recovery)?
Its recovery is 92.8%.

And the hepatocyte CLint (Rat hepatocyte clearance; with ABT, read-out: Rat Hepatocyte Clearance ABT Intrinsic Clearance)?
The hepatocyte CLint was 3 µL/min/1e6 cells.

And the “glucose excursion in IPGTT” value (wild type ICR mice)?
Its value is “decreases in glucose excursion”.

And the “insulin secretion in IPGTT” value (wild type ICR mice)?
Its value is “Dose-dependent increases in insulin secretion”.

What about the recovery (Dog hepatocyte clearance; no ABT, read-out: Dog Hepatocyte Clearance no ABT % Recovery) of the same compound?
The recovery was 103%.

What about the hepatocyte CLint (Dog hepatocyte clearance; no ABT, read-out: Dog Hepatocyte Clearance no ABT Intrinsic Clearance) of the same compound?
The hepatocyte CLint was 31.4 µL/min/1e6 cells.

What about the recovery (Dog hepatocyte clearance; with ABT (concentration not stated), read-out: Dog Hepatocyte Clearance ABT % Recovery) of the same compound?
The recovery was 92.8%.

And the hepatocyte CLint (Dog hepatocyte clearance; with ABT, read-out: Dog Hepatocyte Clearance ABT Intrinsic Clearance)?
The hepatocyte CLint was 19.3 µL/min/1e6 cells.

What about the recovery ([7]; no ABT, read-out: Mouse Hepatocyte Clearance no ABT % Recovery) of the same compound?
Its recovery is 103%.

What about the hepatocyte CLint ([7]; no ABT, read-out: Mouse Hepatocyte Clearance no ABT Intrinsic Clearance) of the same compound?
Its hepatocyte CLint is 9.2 µL/min/1e6 cells.

What about the recovery ([7]; with ABT (concentration not stated), read-out: Mouse Hepatocyte Clearance ABT % Recovery) of the same compound?
The recovery was 92.8%.

What about the hepatocyte CLint ([7]; with ABT, read-out: Mouse Hepatocyte Clearance ABT Intrinsic Clearance) of the same compound?
The hepatocyte CLint was 12.4 µL/min/1e6 cells.

And the Emax (human GPR40 [8])?
Its Emax is 110%.

And the EC50 (GPR40 L112A)?
The EC50 was greater than 30 µM.

What about the EC50 (human GPR40 [9]) of the same compound?
The EC50 was 0.0019 µM.

And the Emax (human GPR40 [9])?
The Emax was 172%.

And the Ki (hGLUCR)?
Its Ki is greater than 10 µM.

What about the “glucose excursion in OGTT, GPR120 KO” value (GPR120 KO mice) of the same compound?
Its value is “significant decrease in glucose excursion”.
